Consider five molecules from PMC9000886, “Protection-Free Strategy for the Synthesis of Boro-Depsipeptides in Aqueous Media under Microwave-Assisted Conditions” (Molecules, 2022).

The nature of this data set: Solubility observed when preparing compounds for the cytotoxicity experiments. In kind it is physicochemical. Conditions: reason for exclusion from cytotoxicity experiments; stocks 1 mM in 100% DMSO. How it is done: HEK293 cells were plated at 70% density in 24-well plates at 37 °C. All compounds were first dissolved in 100% DMSO to give 1 mM as a stock for the following dilutions. […] Further, the cell viability was measured by the 3-(4,5-Dimethyl-2-thiazolyl)-2,5-diphenyl-2H-tetrazolium bromide (MTT) assay. After incubating for 1h, the reaction product was read at 570 nm using a Synergy HT microplate reader (BioTek Instruments, Winooski, VT, USA).
On to `CC(C)C(=O)OC(C(=O)NC(C)(C)C)c1ccc(F)c(B(O)O)c1` (centres unmarked) [Compound 4e, (5-(2-(Tert-Butylamino)-1-(Isobutyryloxy)-2-Oxoethyl)-2-Fluorophenyl)boronic Acid], for which the solubility entry is given as “poor solubility”. Regarding `CC(C)(C)NC(=O)COC(=O)c1ccc(B(O)O)cc1` [Compound 5a, (4-((2-(Tert-Butylamino)-2-Oxoethoxy)carbonyl)phenyl)boronic Acid], the solubility result is “poor solubility”. As for `CC(C)(C)NC(=O)C(OC(=O)c1ccc(B(O)O)cc1)c1ccccc1F` (centres unmarked) [Compound 5h, (4-((2-(Tert-Butylamino)-1-(2-Fluorophenyl)-2-Oxoethoxy)carbonyl)phenyl)boronic Acid], the solubility entry is recorded as “poor solubility”. `CC(C)(C)NC(=O)C(OC(=O)c1ccc(B(O)O)cc1)c1ccnc2ccccc12` (centres unmarked) [Compound 5i, (4-((2-(Tert-Butylamino)-2-Oxo-1-(Quinolin-4-yl)ethoxy)carbonyl)phenyl)boronic Acid]: the solubility result is on record as “poor solubility”. For `CC(C)(C)NC(=O)COC(=O)c1ccc(B(O)O)c([N+](=O)[O-])c1` [Compound 5l, (4-((2-(Tert-Butylamino)-2-Oxoethoxy)carbonyl)-2-Nitrophenyl)boronic Acid], the solubility result is “poor solubility”.
